Measurements as given in PMC8200523, “Designing and Development of FRET-Based Nanosensor for Real Time Analysis of N-Acetyl-5-Neuraminic Acid in Living Cells” (Frontiers in Nutrition, 2021).

What was measured:
[1] = target: T1, FLIP-SA (ECFP-SiaP-Venus); sialic acid periplasmic binding protein SiaP (Haemophilus influenzae, UniProt P44542); assay: FRET ratio ([…] nm) titration of purified ECFP-SiaP-Venus sensor; settings: PBS 20 mM, pH 6.5-7.0; sensor 0.20 mg/ml; NeuAc 1 nM-1 M; text prints ~157 μM
T1 construct: SiaP without signal peptide and stop codon, inserted at KpnI site between ECFP (N-term) and Venus (C-term); His6 tag of pRSET-B; E. coli BL21(DE3), Ni-NTA

[2] = target: FLIP-SA (ECFP-SiaP-Venus); sialic acid periplasmic binding protein SiaP (Haemophilus influenzae, UniProt P44542, R150D); settings: PBS 20 mM, pH 6.5-7.0; sensor 0.20 mg/ml
[3] = target: FLIP-SA (ECFP-SiaP-Venus); sialic acid periplasmic binding protein SiaP (Haemophilus influenzae, UniProt P44542, E90N); settings: PBS 20 mM, pH 6.5-7.0; sensor 0.20 mg/ml
[4] = target: FLIP-SA (ECFP-SiaP-Venus); sialic acid periplasmic binding protein SiaP (Haemophilus influenzae, UniProt P44542, D72K); settings: PBS 20 mM, pH 6.5-7.0; sensor 0.20 mg/ml
Sequence of FLIP-SA (ECFP-SiaP-Venus); sialic acid periplasmic binding protein SiaP (Haemophilus influenzae, UniProt P44542, D72K) (P44542 24-329 D72K): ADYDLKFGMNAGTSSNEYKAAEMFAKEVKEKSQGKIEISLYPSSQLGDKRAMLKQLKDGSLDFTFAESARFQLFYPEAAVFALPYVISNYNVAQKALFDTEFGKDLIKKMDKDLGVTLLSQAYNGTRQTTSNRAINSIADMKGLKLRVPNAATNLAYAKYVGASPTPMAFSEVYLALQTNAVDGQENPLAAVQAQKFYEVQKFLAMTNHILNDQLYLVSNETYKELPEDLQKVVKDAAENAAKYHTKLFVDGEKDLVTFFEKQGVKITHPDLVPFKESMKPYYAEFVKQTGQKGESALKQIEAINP

T1 sequence (P44542 24-329): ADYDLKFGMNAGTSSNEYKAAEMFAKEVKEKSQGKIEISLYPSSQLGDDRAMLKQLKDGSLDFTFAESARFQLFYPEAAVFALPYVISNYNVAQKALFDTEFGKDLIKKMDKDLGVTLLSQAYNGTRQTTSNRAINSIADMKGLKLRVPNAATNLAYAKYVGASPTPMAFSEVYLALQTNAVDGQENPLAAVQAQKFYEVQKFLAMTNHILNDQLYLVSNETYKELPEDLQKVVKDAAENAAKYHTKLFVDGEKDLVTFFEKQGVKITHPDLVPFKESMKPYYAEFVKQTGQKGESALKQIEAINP
Sequence of FLIP-SA (ECFP-SiaP-Venus); sialic acid periplasmic binding protein SiaP (Haemophilus influenzae, UniProt P44542, R150D) (P44542 24-329 R150D): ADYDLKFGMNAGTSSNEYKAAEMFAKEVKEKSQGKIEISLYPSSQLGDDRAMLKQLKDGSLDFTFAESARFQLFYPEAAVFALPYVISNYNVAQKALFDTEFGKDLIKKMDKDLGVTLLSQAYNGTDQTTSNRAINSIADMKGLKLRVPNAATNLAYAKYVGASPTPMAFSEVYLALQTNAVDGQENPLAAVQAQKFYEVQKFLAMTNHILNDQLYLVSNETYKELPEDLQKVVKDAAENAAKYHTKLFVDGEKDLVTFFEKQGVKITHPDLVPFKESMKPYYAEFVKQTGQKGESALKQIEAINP
Sequence of FLIP-SA (ECFP-SiaP-Venus); sialic acid periplasmic binding protein SiaP (Haemophilus influenzae, UniProt P44542, E90N) (P44542 24-329 E90N): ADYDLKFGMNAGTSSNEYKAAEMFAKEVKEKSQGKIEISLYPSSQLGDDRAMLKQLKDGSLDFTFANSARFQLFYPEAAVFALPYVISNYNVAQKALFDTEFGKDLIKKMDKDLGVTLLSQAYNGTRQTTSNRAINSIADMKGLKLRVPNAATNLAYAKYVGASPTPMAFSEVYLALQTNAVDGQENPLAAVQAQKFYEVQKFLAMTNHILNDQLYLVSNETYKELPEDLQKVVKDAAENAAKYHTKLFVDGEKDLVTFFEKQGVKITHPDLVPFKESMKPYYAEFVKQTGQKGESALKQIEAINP

With `CC(=O)N[C@H]1[C@H]([C@H](O)[C@H](O)CO)OC(O)(C(=O)O)C[C@@H]1O` (stereo partly shown) [NeuAc] the Kd [1] was 157 µM, the Kd [2] was 510 nM and the Kd [3] was 600 µM. The Kd [4] was 13 nM.
